# Results taken from patent US10928381B2, “In vitro methods of monitoring autophagy in a human cell using a photoconvertable fluorescent protein linked biomarker” (The Regents of the University of Michigan, priority 2018, dated 2021).
# “Also recorded” adds a separate entry of the source.
# Tested on: Dendra2-LC3 HEK cells
# Experiment: Optical pulse labeling: time-dependent decay of photoconverted (red, RFP/TRITC) Dendra2-LC3 as measure of autophagic flux
# Type: cell-based, human
# Set-up: key to Hit class in screen of Enzo Autophagy compound library (9H RFP/0H RFP): enhancer: [Sample9H RFP/OH RFP]<[DMSO9H RFP/OH RFP−3SDDMSO]; inhibitor: [Sample9H RFP/OH RFP]>[DMSO9H RFP/OH RFP 3SDDMSO]
# Conditions: for Effect on torin1-induced Dendra2-LC3 degradation: co-treatment with torin1; for Effect on torin1-induced Dendra2-LC3 degradation / Degradation (decay) of photoconverted Dendra2-LC3: red channel; for Dose dependence of effect on Dendra2-LC3 decay: increasing concentrations, RFP and GFP channels; for Degradation (decay) of photoconverted Dendra2-LC3: vs DMSO, Torin1 1 uM, Bafilomycin-A1 10 nM
# Experimental: FIGS. 8A-E. Time dependent decay of Dendra2-LC3 as an assay of autophagic flux. (FIG. 8A) Dendra2-LC3 reporter cells were imaged prior to photoconversion to measure background TRITC intensity. Immediately following photoconversion with a 5 second pulse of […] light, cells were treated with DMSO, 1 uM Torin1, or 10 nM Bafilomycin-A1 and then were subsequently imaged at the indicated time points. Images are psuedocolored to better highlight intensity differences. (FIGS. 8B-E) Time dependent changes in photoconverted Dendra2-LC3 fluorescence in the TRITC (FIGS. 8B, D) and GFP (FIGS. 8C, E) channels. Gray boxes represent the pre and post-photoconversion time points. TRITC intensity values are normalized, setting the background intensity prior to conversion to 0 and the post-conversion value to 1. GFP values are normalized to the pre-conversion intensity. Error bars represent the SEM from three replicate experiments. […] (FIG. 8C) Following photoconversion there is a 40% drop in GFP intensity. As new Dendra2-LC3 is synthesized, GFP levels return to pre-photoconversion levels over the span of 13.5 hours. […] Cells were transfected with 20 nM ATG5 siRNA two days prior to imaging.
# FIG. 9A-C. Evaluating the efficacy of known autophagy modulators. (FIG. 9A) An unbiased screen of the Enzo Autophagy compound library identified several known autophagy compounds as hits providing construct validity to the assay. Rapamycin, NVP-BEZ235 and AKT inhibitor X, were among the compounds appropriately identified as enhancers while Bafilomycin registered as an inhibitor. […] Cells were imaged in RFP to measure background fluorescence, then photoconverted with a 4 second DAPI exposure and immediately imaged again to establish the postconversion intensity. Drugs from the Enzo Autophagy library were added at a concentration of 10 uM via a robotic liquid handler. 9 hours later the cells were imaged again in order to assess the efficacy of the drugs. Hits were defined as follows: enhancer: [Sample9H RFP/OH RFP]<[DMSO9H RFP/OH RFP−3SDDMSO], inhibitor: [Sample9H RFP/OH RFP]>[DMSO9H RFP/OH RFP 3SDDMSO]. […] Imaging of the compound library was repeated in GFP. Intensity values are reported 15 hours after drug treatment. (FIG. 9C) The reduction in Dendra2-LC3 half-life observed upon treatment of autophagic flux enhancers is attenuated with partial knockdown of ATG5. Cells were transfected with 20 nM ATG5 siRNA 2 days prior to imaging. Error bars represent SEM from three replicate experiments.
# Experiments were conducted during development of embodiments herein to develop a sensitive method—optical pulse labeling (OPL)—that takes advantage of the photoconvertible fluorescent protein Dendra2 for estimations of autophagic flux in cellulo (Refs 14, 34; herein incorporated by reference in their entireties) (FIG. 1b). […] Dendra2 was fused to LC3, a specific marker of autophagosomes and itself an autophagy substrate (Refs. 27, 31; herein incorporated by reference in their entireties). Following photoconversion, the time-dependent reduction in red LC3-Dendra2 (FIG. 1c) is used to calculate protein half-life, representing an estimate of autophagy flux for individual cells (Refs. 14, 34; herein incorporated by reference in their entireties) Furthermore, because LC3 is degraded as autophagosomes mature, the return to steady-state levels of green Dendra2-LC3 after photoconversion (FIG. 1d) reflects activity within the pathway as a whole. The assay is noninvasive, permitting longitudinal analyses of autophagy kinetics in living cells, and amenable to HTS.
# For these studies the potent mTOR inhibitor torin1 (Ref. 36; herein incorporated by reference in its entirety) was selected as a positive control for autophagy induction, and the vacuolar ATPase inhibitor bafilomycin-A1 (Ref. 37; herein incorporated by reference in its entirety) as a positive control for autophagy inhibition. In each case, DMSO served as a vehicle (negative) control. […]
structure (smiles),measurement,setting,value
"CO/C1=C\C(C)=C\[C@@H](C)[C@@H](O)[C@@H](C)C/C(C)=C/C=C/[C@H](OC)[C@@H]([C@@H](C)[C@@H](O)[C@H](C)[C@@]2(O)C[C@@H](O)[C@H](C)[C@@H](C(C)C)O2)OC1=O [Bafilomycin-A1, bafilomycin-A1]",Hit class in screen of Enzo Autophagy compound library (9H RFP/0H RFP),"10 uM, 9 hours after drug addition",inhibitor
same,Effect on torin1-induced Dendra2-LC3 degradation,listed as BafilomycinA1,blocks induction by torin1
same,Effect on torin1-induced Dendra2-LC3 degradation,listed as bafilomycin-A1,completely blocked the effects of torin1
same,Dose dependence of effect on Dendra2-LC3 decay,,"similar, tunable response"
same,Degradation (decay) of photoconverted Dendra2-LC3,listed as bafilomycin,extends it
same,Degradation (decay) of photoconverted Dendra2-LC3,listed as bafilomycin-A1,slowed its clearance
"CCC(=O)N1CCN(c2ccc(-n3c(=O)ccc4cnc5ccc(-c6cnc7ccccc7c6)cc5c43)cc2C(F)(F)F)CC1 [Torin1, torin1]",Dose dependence of effect on Dendra2-LC3 decay,,increased in a dose dependent manner
same,Degradation (decay) of photoconverted Dendra2-LC3,,significantly accelerates Dendra2-LC3 degradation; also recorded: accelerates decay; also recorded: significantly enhanced Dendra2-LC3 degradation
